In US4200636A, “3-Amino-17a-aza-D-homoandrostane compounds, and pharmaceutical compositions containing them” (priority 1977, dated 1980):
Where two headings read alike, the source gives them in different places.

How the values were obtained:
tibialis muscle = test: Neuromuscular block in anesthetized cats (electrically stimulated peroneal nerve, tibialis muscle contractions); format: in vivo; settings: for Activity period: i.v., time between first appearance of the effect and restoration of normal muscle contractions; for ED50: i.v. dose reducing the contractions to half of their original values, 4 doses
Protocol: The potency and the activity period of the compounds according to the invention were tested on anesthesized cats and alert dogs. On anesthesized cats the peroneal nerve was electrically stimulated and the corresponding contractions of the tibialis muscle was registrated. The i.v. doses of the various test compounds which reduced the contractions to half of their original values were determined (ED50 -values). In the attached Table I the ED50 -values and the corresponding activity periods are shown, the term "activity period" is intended to mean the time interval between the first appearance of the effect of the test compounds and the restoration of the normal muscle contractions. For each test compound 4 doses were used and for each dose 6 animals were examined. As a reference compound suxamethonium was used, which is a known compound widely used as a neuromuscular blocking agent having a short activity period.

muscle relaxation = test: Total muscle relaxation in alert dogs; format: in vivo; settings: for Activity period: time between administration and disappearance of the activity; for Time until the max. effect: time between administration and total muscle relaxation
Protocol: To alert dogs (6 animals for each test compound) four doses causing a total muscle relaxation were administered and the time between the administration and the total muscle relaxation as well as the time between the administration and the disappearance of the activity was measured.

[1] = Dose 100 (unit not printed), listed as 3 β-Pyrrolidino-17a-methyl-17a-aza-D-homo-5α -androstane-di-methoiodide
[2] = Dose 100 (unit not printed), listed as 3 β-Pyrrolidino-17a-methyl-17a-aza-D-homo-5 α-androstane-di-methobromide

SMILES	Activity period (tibialis muscle) [min]	Activity period (muscle relaxation; Dose 100 (unit not given)) [min]	Time until the max. effect (muscle relaxation; Dose 100 (unit not given)) [s]	other results
C[C@]12CC[C@@H]([N+]3(C)CCCC3)C[C@@H]1CC[C@@H]1[C@@H]2CC[C@@]2(C)[C@H]1CCC[N+]2(C)C [3 α-Pyrrolidino-17a-methyl-17a-aza-D-homo-5α-androstane-di-m] [3α-Pyrrolidino-17a-methyl-17a-aza-D-homo-5α-androstane dimethobromide]	11.2	8.6	18	–
C[C@]12CC[C@H]([N+]3(C)CCCC3)C[C@@H]1CC[C@@H]1[C@@H]2CC[C@@]2(C)[C@H]1CCC[N+]2(C)C [3 β-Pyrrolidino-17a-methyl-17a-aza-D-homo-5α-androstane-di-m] [3β-Pyrrolidino-17a-methyl-17a-aza-D-homo-5α-androstane dimethoiodide]	12.6	–	–	ED50 (tibialis muscle): 0.105 mg/kg; Activity period (muscle relaxation; [1]): 8.8 min; Time until the max. effect (muscle relaxation; [1]): 17 s
C[C@]12CC[C@H]([N+]3(C)CCCC3)C[C@@H]1CC[C@@H]1[C@@H]2CC[C@@]2(C)[C@H]1CCC[N+]2(C)C [3 β-Pyrrolidino-17a-methyl-17a-aza-D-homo-5α-androstane-di-m] [3β-Pyrrolidino-17a-methyl-17a-aza-D-homo-5α-androstane dimethobromide]	13.0	–	–	Activity period (muscle relaxation; [2]): 9.5 min; Time until the max. effect (muscle relaxation; [2]): 21 s
C[C@]12CC[C@@H]([N+]3(C)CCCC3)C[C@@H]1CC[C@@H]1[C@@H]2CC[C@@]2(C)[C@H]1CCC[N+]2(C)C [3 αPyrrolidino-17a-methyl-17a-aza-D-homo-5α-androstane-di-me] [3α-Pyrrolidino-17a-methyl-17a-aza-D-homo-5α-androstane dimethoiodide]	12.4	8.5	19	ED50 (tibialis muscle): 0.12 mg/kg
C[C@]12CC[C@@H]([N+]3(C)CCCC3)C[C@@H]1CC[C@@H]1[C@@H]2CC[C@@]2(C)[C@H]1CCC[N+]2(C)C [3α-Pyrrolidino-17a-methyl-17a-aza-D-homo-5α-androstane dimethobromide]	–	–	–	ED50 (tibialis muscle; Felis catus, iv): 0.1 mg/kg
C[C@]12CC[C@H]([N+]3(C)CCCC3)C[C@@H]1CC[C@@H]1[C@@H]2CC[C@@]2(C)[C@H]1CCC[N+]2(C)C [3β-Pyrrolidino-17a-methyl-17a-aza-D-homo-5α-androstane dimethobromide]	–	–	–	ED50 (tibialis muscle; Felis catus, iv): 0.125 mg/kg
C[N+](C)(C)CCOC(=O)CCC(=O)OCC[N+](C)(C)C [Suxamethonium, reference compound]	11.0	10.3	16	ED50 (tibialis muscle; Felis catus, iv, read-out: ED50): 0.06 mg/kg
